Laboratory results reported in the supplement of paper PMC10307832.

Legend:
Assay in all cases: relative viability (nuclei count vs DMSO), 5 days (fraction); higher = more cells survive
Bexarotene + Luminespib = compound: C=C(c1ccc(C(=O)O)cc1)c1cc2c(cc1C)C(C)(C)CCC2(C)C [Bexarotene] + CCNC(=O)c1noc(-c2cc(C(C)C)c(O)cc2O)c1-c1ccc(CN2CCOCC2)cc1 [Luminespib] (partner 0.01 µM)
Procedure, shortened: (§1)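 Lung cancer cell lines were pin-tool dosed in 1536-well plates on the day after seeding, with either a lone drug or a fixed anchor-drug dose plus five library-drug doses (not always all listed) in √10 steps. Nuclei were counted on 4× images after 5 days. Relative viability is the ratio of treated-well to vehicle-well nuclei counts, with each value a median of duplicate plates.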

Bexarotene + OSI-027 = compound: C=C(c1ccc(C(=O)O)cc1)c1cc2c(cc1C)C(C)(C)CCC2(C)C [Bexarotene] + COc1cccc2cc(-c3nc([C@H]4CC[C@H](C(=O)O)CC4)n4ncnc(N)c34)[nH]c12 [OSI-027] (partner 0.5 µM)
Procedure, shortened: as §1

Bexarotene + Lapatinib = compound: C=C(c1ccc(C(=O)O)cc1)c1cc2c(cc1C)C(C)(C)CCC2(C)C [Bexarotene] + CS(=O)(=O)CCNCc1ccc(-c2ccc3ncnc(Nc4ccc(OCc5cccc(F)c5)c(Cl)c4)c3c2)o1 [Lapatinib] (partner 2 µM)
Procedure, shortened: as §1

Bexarotene + Linsitinib = compound: C=C(c1ccc(C(=O)O)cc1)c1cc2c(cc1C)C(C)(C)CCC2(C)C [Bexarotene] + C[C@]1(O)C[C@@H](c2nc(-c3ccc4ccc(-c5ccccc5)nc4c3)c3c(N)nccn32)C1 [Linsitinib] (partner 1 µM)
Procedure, shortened: as §1

| Cell Line | relative viability (Bexarotene + Luminespib; first compound 0.08 µM) | relative viability (Bexarotene + Luminespib; first compound 0.253 µM) | relative viability (Bexarotene + Luminespib; first compound 0.8 µM) | relative viability (Bexarotene + Luminespib; first compound 2.53 µM) | relative viability (Bexarotene + Luminespib; first compound 8 µM) | relative viability (Bexarotene + OSI-027; first compound 0.08 µM) | relative viability (Bexarotene + OSI-027; first compound 0.253 µM) | relative viability (Bexarotene + OSI-027; first compound 0.8 µM) | relative viability (Bexarotene + OSI-027; first compound 2.53 µM) | relative viability (Bexarotene + OSI-027; first compound 8 µM) | relative viability (Bexarotene + Lapatinib; first compound 0.08 µM) | relative viability (Bexarotene + Lapatinib; first compound 0.253 µM) | relative viability (Bexarotene + Lapatinib; first compound 0.8 µM) | relative viability (Bexarotene + Lapatinib; first compound 2.53 µM) | relative viability (Bexarotene + Lapatinib; first compound 8 µM) | relative viability (Bexarotene + Linsitinib; first compound 0.08 µM) | relative viability (Bexarotene + Linsitinib; first compound 0.253 µM) | relative viability (Bexarotene + Linsitinib; first compound 0.8 µM) | relative viability (Bexarotene + Linsitinib; first compound 2.53 µM) | relative viability (Bexarotene + Linsitinib; first compound 8 µM) |
| --- | --- | --- | --- | --- | --- | --- | --- | --- | --- | --- | --- | --- | --- | --- | --- | --- | --- | --- | --- | --- |
| NCI-H2087 | 0.174 | 0.169 | 0.175 | 0.139 | 0.142 | 0.643 | 0.693 | 0.663 | 0.565 | 0.448 | 1.06 | 1.16 | 1.2 | 0.98 | 0.883 | 1.01 | 0.963 | 0.89 | 0.896 | 0.827 |
| NCI-H2228 | 0.186 | 0.121 | 0.145 | 0.145 | 0.132 | 0.848 | 0.639 | 0.359 | 0.568 | 0.477 | 1.55 | 0.935 | 0.763 | 1.17 | 0.909 | 0.905 | 0.818 | 0.586 | 0.656 | 0.749 |
| NCI-H727 | 0.392 | 0.685 | 0.325 | 0.322 | 0.372 | 0.63 | 0.657 | 0.478 | 0.465 | 0.612 | 1.02 | 0.887 | 0.881 | 0.762 | 0.811 | 0.286 | 0.408 | 0.305 | 0.311 | 0.284 |
| NCI-H650 | 0.779 | 0.828 | 0.877 | 0.898 | 0.742 | 0.516 | 0.521 | 0.523 | 0.485 | 0.494 | 1.08 | 1.06 | 0.915 | 0.634 | 0.778 | 0.869 | 0.926 | 0.793 | 0.645 | 0.83 |
| NCI-H520 | 0.236 | 0.22 | 0.229 | 0.22 | 0.226 | 0.238 | 0.207 | 0.276 | 0.222 | 0.241 | 1.12 | 0.793 | 0.577 | 0.875 | 0.71 | 1.02 | 0.951 | 0.79 | 0.976 | 0.88 |
| EBC-1 | – | – | – | – | – | – | – | – | – | – | 0.231 | 0.232 | 0.22 | 0.192 | 0.209 | 0.954 | 0.89 | 0.783 | 0.929 | 1.06 |
| NCI-H661 | 0.943 | 0.9 | 0.929 | 0.89 | 0.89 | 0.631 | 0.665 | 0.647 | 0.623 | 0.635 | 0.432 | 0.554 | 0.477 | 0.516 | 0.513 | 0.533 | 0.611 | 0.437 | 0.587 | 0.549 |
| NCI-H1299 | – | – | – | – | – | – | – | – | – | – | 1.02 | 1.03 | 1.04 | 0.917 | 0.964 | 1.02 | 1.01 | 0.991 | 1.02 | 0.94 |
| LK-2 | 0.206 | 0.222 | 0.281 | – | 0.18 | 0.262 | 0.207 | 0.237 | 0.202 | 0.255 | 1.33 | 1 | 1.04 | 0.968 | 0.961 | 0.513 | 0.713 | 0.692 | 0.705 | 0.773 |
| NCI-H1993 | 1.09 | 0.783 | 0.792 | 0.859 | 0.815 | 0.588 | 0.498 | 0.564 | 0.54 | 0.564 | 0.858 | 0.826 | 0.809 | 0.802 | 0.814 | 0.718 | 0.665 | 0.608 | 0.656 | 0.774 |
| NCI-H2170 | 0.835 | 0.697 | 0.721 | 0.464 | 0.695 | 0.699 | 0.757 | 0.636 | 0.683 | 0.604 | 0.264 | 0.245 | 0.275 | 0.305 | 0.273 | – | – | – | – | – |
| SW 900 | 0.167 | 0.17 | 0.148 | 0.189 | 0.163 | 0.673 | 0.739 | 0.739 | 0.55 | 0.451 | – | – | – | – | – | – | – | – | – | – |
| LCLC-103H | 1.08 | 0.935 | 0.885 | 1.04 | 0.846 | 0.522 | 0.434 | 0.354 | 0.461 | 0.448 | – | – | – | – | – | 1.24 | 1.15 | 1 | 1.06 | 1.14 |
| NCI-H441 | 0.373 | 0.384 | 0.314 | 0.295 | 0.377 | 0.763 | 0.67 | 0.645 | 0.585 | 0.672 | – | – | – | – | – | 0.587 | 0.583 | 0.578 | 0.616 | 0.556 |
| NCI-H1650 | 0.195 | 0.183 | 0.219 | 0.225 | 0.231 | 0.612 | 0.734 | 0.598 | 0.726 | 0.622 | 0.813 | 0.707 | 0.871 | 0.659 | 0.745 | – | – | – | – | – |
| NCI-H522 | 1.24 | 1.09 | 1.17 | 1.23 | 0.899 | 0.722 | 0.721 | 0.677 | 0.706 | 0.705 | – | – | – | – | – | – | – | – | – | – |
| IA-LM | – | – | – | – | – | – | – | – | – | – | – | 0.773 | 0.68 | 0.536 | 0.694 | 0.682 | 0.581 | 0.523 | 0.603 | 0.51 |
| HCC-366 | – | – | – | – | – | 1.2 | 0.968 | 0.974 | 0.888 | 0.913 | 0.984 | 1.06 | 1.06 | 1.04 | 1.06 | 1.1 | 0.781 | 0.774 | 0.715 | 0.635 |
| NCI-H2342 | 0.709 | 0.675 | 0.747 | 0.873 | 0.661 | 0.612 | 0.6 | 0.553 | 0.686 | 0.707 | – | – | – | – | – | – | – | – | – | – |
| HCC-78 | – | – | – | – | – | 0.389 | 0.325 | 0.331 | 0.34 | 0.399 | 0.724 | 0.7 | 0.591 | 0.637 | 0.668 | 0.524 | 0.461 | 0.44 | 0.374 | 0.392 |
